Data on ten molecules can be found in patent US6677473B1, “Plasminogen activator inhibitor antagonists” (Corvas International INC, priority 1999, dated 2004).

Molecules are shown by their SMILES.

T1 sequence (P05121 24-402): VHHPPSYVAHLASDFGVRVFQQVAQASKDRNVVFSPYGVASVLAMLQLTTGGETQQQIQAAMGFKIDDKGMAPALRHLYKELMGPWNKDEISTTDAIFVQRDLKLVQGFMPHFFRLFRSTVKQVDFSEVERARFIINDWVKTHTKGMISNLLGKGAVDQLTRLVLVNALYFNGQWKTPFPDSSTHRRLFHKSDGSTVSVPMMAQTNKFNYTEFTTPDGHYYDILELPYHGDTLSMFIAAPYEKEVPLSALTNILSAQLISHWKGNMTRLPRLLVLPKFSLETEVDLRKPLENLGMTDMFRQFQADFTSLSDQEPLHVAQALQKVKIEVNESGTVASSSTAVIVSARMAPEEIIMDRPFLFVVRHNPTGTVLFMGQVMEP

The test concerns the target T1, Human recombinant PAI-1 (Homo sapiens, UniProt P05121).
T1 construct: made in house; host or cells: E. coli
The experiment in a line: Chromogenic assay for plasminogen activator inhibitor type-1 (PAI-1) antagonism (tPA / glu-plasminogen / Spectrozyme PL, OD405). It counts as biochemical. As to conditions: determined by comparison with control reactions; assay variant (#1-#4) not given; read-out: IC50 for PAI antagonist activity. The procedure:
PAI-1 antagonist assays were performed in a buffer containing Tris, 0.05 mol/L, pH 7.4, 100 mmol/L NaCl, 1 mmol/L EDTA, and 0.01% Tween 80. Human recombinant PAI-1 purified from E coli. and human recombinant tPA were diluted into this standard assay buffer at concentrations of approximately 500-600 ng/mL and 100 ng/mL, respectively. PAI-1 antagonists were dissolved first in DMSO at a concentration of approximately 5 mg/mL, and these solutions were then diluted into the standard reaction buffer to achieve a final compound concentration of 1 mg/mL. Native, purified human glu-plasminogen was purchased from Boehringer Mannheim and was supplied as a lyophilized powder, which was first reconstituted in sterile water to a concentration of 55 μmol/L and then diluted to a concentration of 0.825 μmol/L in standard assay buffer. The chromogenic substrate Spectrozyme PL (H—D-Norleucyl-hexahydrotyrosyl-lysine-p-nitroanilide, American Diagnostica) was prepared as a stock solution with a concentration of 2.5 mmol/L in sterile water. Human fibrin monomer (DESAFIB) was purchased from American Diagnostica and was supplied as a lyophilized powder, which was reconstituted in standard assay buffer at a concentration of 100 μg/mL.
The chromogenic assay utilized the reagents described above. Fresh reagent solutions were prepared prior to each assay. Assays were performed in individual wells of standard 96 well mocrotiter assay plates. Standard assays were prepared as follows:
The following reagents were combined:
The plate was agitated or the individual 25 μL mixtures were pipetted up and down once or twice to assure proper mixing of reagents. The resulting mixture was incubated 15 minutes at room temperature (approximately 21° C.).
The following was added to each reaction:
The microtiter assay plate was then placed into a Molecular Devices Thermomax or Spectromax Plate Reader, agitated to assure thorough mixing of reagents, and incubated at 37° C. The OD405 of each reaction mixture is measured every minute for 1 hour. Control reactions which lack PAI-1; PAI-1 and test compound; t-PA; or t-PA, PAI-1 and test compound were performed in each assay.
Assay #2 was performed exactly as assay #1 except that a 10 minute preincubation of the test compound and PAI-1 was performed at room temperature prior to the addition of t-PA.
Assay #3 was performed exactly as assay #1 except that a wide range of concentrations of each test compound, depending upon the potency of the individual compound, was used in the assay.
Assay #4 was performed exactly as assay #2 except that a wide range of concentrations of each test compound, depending upon the potency of the individual compound, was used in the assay.
The generated plasmin cleaved the chromogenic substrate, Spectrozyme PL, producing pNA (para-nitroaniline). The pNA was detected spectrophotometrically at 405 nm.
The degree of inhibition at various concentrations and/or the IC50 value for the compounds provided herein was determined by comparison with control reactions. The IC50 for PAI antagonist activity for each of the compounds specifically disclosed herein has been measured.
As usually defined, the IC50 is the midpoint of a concentration-inhibition curve. As for `O=C(c1ccccc1)c1cc(I)c(O)c(I)c1` [(4-hydroxy-3,5-diiodophenyl)-phenyl-methanone], the IC50 was less than 100 µM.

For `O=C(O)c1cc(I)c(OCc2c(F)cccc2F)c(I)c1` [4-(2,6-difluorobenzyloxy)-3,5-diiodobenzoic acid], the IC50 was less than 100 µM. As to `O=C(c1cc(I)c(O)c(I)c1)c1cc(I)c(OCc2cccc(I)c2)c(I)c1` [[3,5-diiodo-4-(3-iodobenzyloxy)phenyl]-(4-hydroxy-3,5-diiodophenyl)methanone], the IC50 is less than 10 µM. The figure for `O=C(O)COc1c(I)cc(C(=O)c2cc(I)c(O)c(I)c2)cc1I` [[4-(4-hydroxy-3,5-diiodobenzoyl)-2,6-diiodophenoxy]acetic acid] is less than 100 µM; for `O=C(c1cc(I)c(O)c(I)c1)c1cc(I)c(O)c(I)c1` [bis(4-hydroxy-3,5-diiodophenyl)methanone] it is less than 50 µM.

On to `O=C(C(=O)c1cc(I)c(O)c(I)c1)c1cc(I)c(O)c(I)c1` [1,2-bis-(4-hydroxy-3,5-diiodophenyl)ethane-1,2-dione], for which the IC50 was less than 50 µM. Then `O=C(O)CCc1cc(I)c(OCc2ccc(I)cc2)c(I)c1` [3-[3,5-diiodo-4-(4-iodobenzyloxy)phenyl]propionic acid], with less than 10 µM; and `Cc1ccccc1COc1c(I)cc(C(=O)O)cc1I` [3,5-diiodo-4-(2-methylbenzyloxy)benzoic acid], with less than 50 µM; and `O=C(O)CCCCCCCCCCOc1c(I)cc(C(=O)O)cc1I` [4-(10-carboxydecyloxy)-3,5-diiodobenzoic acid], with less than 50 µM. Then `O=C(O)c1cc(I)c(OCc2ccc(I)cc2)c(I)c1` [3,5-diiodo-4-(4-iodobenzyloxy)benzoic acid], with less than 10 µM.
